In PubChem BioAssay AID366 (MTDP, 2006):
Calls of active or inactive are those of the source. How the calls were made is not given here.

Molecular target: Ribonuclease H1 (Homo sapiens) (UniProt O60930)
Experiment: inhibition of human ribonuclease H1 activity – biochemical, FRET RNA/DNA duplex cleavage, dose response (AID 366);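 further: potency is for inhibitors that lower RNA cleavage and so lower fluorescence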
Settings: human RNase H1, FRET RNA/DNA duplex cleavage, fluorescence

Chain of Ribonuclease H1 (Homo sapiens) (O60930 whole entry, looked up): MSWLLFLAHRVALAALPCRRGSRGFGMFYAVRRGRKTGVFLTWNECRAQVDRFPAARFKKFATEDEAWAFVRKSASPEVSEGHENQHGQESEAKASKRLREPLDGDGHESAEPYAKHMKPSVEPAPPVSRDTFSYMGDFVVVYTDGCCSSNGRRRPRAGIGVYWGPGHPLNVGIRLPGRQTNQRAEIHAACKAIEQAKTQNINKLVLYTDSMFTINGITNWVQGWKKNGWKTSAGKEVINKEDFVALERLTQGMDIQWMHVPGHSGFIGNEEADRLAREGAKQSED

SMILES	IC50
C=CCn1c(N)c(-c2nc3ccccc3[nH]2)sc1=S	inactive
O=C1NC(=S)N(c2ccc(Cl)cc2)C(=O)/C1=C\C=C\c1ccccc1[N+](=O)[O-]	7 µM
COc1ccc(C(=O)NC(=S)Nc2ccc3nn(-c4ccc(C)c(Cl)c4)nc3c2)cc1[N+](=O)[O-]	0.56 µM
Cc1ccc(S(=O)(=O)N=C2C=CC(=O)C=C2)c(C)c1	3.1 µM
O=C1/C(=C/c2ccc(O)c(O)c2)SC(=S)N1c1ccc(O)cc1	3.5 µM
CCOc1ccc(C(=O)Nc2ccc3c(c2)C(=O)c2ccccc2C3=O)cc1	1.1 µM
COc1ccc2oc(=O)c(-c3csc(Nc4ccc(Br)cc4)n3)cc2c1	0.9 µM
CCOC(=O)Oc1c(OC)cc(C(=O)O[C@@H]2C[C@@H]3CN4CCc5c([nH]c6cc(OC)ccc56)[C@H]4C[C@@H]3[C@H](C(=O)OC)[C@H]2OC)cc1OC	inactive
C=CC(C)(C)C12CC3C(=O)N/C(=C\c4cnc[nH]4)C(=O)N3C1Nc1ccccc12 (stereo not given)	inactive
O=C1C=CC(=O)C(c2cccc(Cl)c2)=C1	3.9 µM
Cc1ccc(-n2c(/C=C/c3ccc(O)c(O)c3)nc3ccccc3c2=O)cc1	7.3 µM
O=C1c2ccccc2C(=O)c2c(O)c(O)cc(O)c21	4.2 µM
Cc1ccc(S(=O)(=O)/N=C2\C=CC(=O)C=C2Cl)cc1	3.4 µM
C[N+](C)=c1ccc2nc3c(cc(Nc4ccccc4)c4ccccc43)oc-2c1	1.6 µM
Cc1sc(NC(=O)C2CCCO2)c(C(N)=O)c1C (stereo not given)	inactive
O=C1CC(=O)c2ccc3c4c(ccc1c24)C(=O)CC3=O	0.4 µM
COC(=O)c1cc2c3c(ccc2[nH]1)N(C(=O)c1cc2c4c(ccc2[nH]1)N(C(=O)c1cc2c5c(ccc2[nH]1)N(C(N)=O)CC5)CC4)CC3	0.8 µM
Cc1ccc(C)n1-c1ccc(Br)cc1C(=O)O	9 µM
Cc1ccc(C)n1-c1ccc(SCC(=O)O)cc1	1.2 µM
CC1=C(C)CC(C(=O)Nc2ccc(N3C(=O)c4ccccc4C3=O)cc2)C(C(=O)O)C1 (stereo not given)	inactive
COc1ccc2c(c1)N(C(=O)CN1C(=O)c3ccccc3C1=O)C(C)(C)c1ssc(=S)c1-2	inactive
Oc1c(Br)cc(/C=N/Nc2nnc3c(n2)[nH]c2ccccc23)c(Br)c1O	0.3 µM
Cc1sc(NC(=O)C2CC3CCC2C3)c(C(N)=O)c1C (stereo not given)	inactive
Cc1cc(C)c2c(=O)[nH]c(SCC(=O)c3ccc(O)c(O)c3)nc2n1	9 µM
C=CC1=C(C)C2=NC1=CC1=NC(=CC3=C(C)C4=C(O)C(C(=O)OC)C(=C5NC(=C2)C(C)C5CCC(=O)OC/C=C(\C)CCCC(C)CCCC(C)CCCC(C)C)C4=N3)C(CC)=C1C (stereo not given)	> 100 µM (inactive)

SMILES	IC50
CC1=c2c(oc3cc(O)c(Nc4c(C)cc(O)cc4O)c(C)c23)=CC(=O)C1=Nc1c(C)cc(O)cc1O	0.3 µM
COC(=O)c1c(N)sc(C(=O)Nc2ccc(OC)cc2)c1C	inactive
CCN1C(=O)/C(=C/c2ccoc2)C(=O)NC1=S	> 100 µM (inactive)
O=C1/C(=C/c2ccc(O)c(O)c2)SC(=S)N1C1CCCCC1	1.8 µM
NC(=O)c1c(N)sc2c1CCCCC2	inactive
O=C1C=C/C(=N\S(=O)(=O)c2cc(Cl)ccc2Cl)C=C1Cl	1.6 µM
CN(C)S(=O)(=O)c1ccc(Nc2ccc(O)c3c2C(=O)c2c([N+](=O)[O-])ccc(O)c2C3=O)cc1	0.8 µM
CC(C)=CCC[C@]1(C)[C@@H](CC=C(C)C)C[C@@]2(CC=C(C)C)C(=O)/C(=C(\O)c3ccc(O)c(O)c3)C(=O)[C@]1(CC=C(C)C)C2=O	3.2 µM
CC(C)=CCC(O)C1=CC(=O)c2c(O)ccc(O)c2C1=O (stereo not given)	4.2 µM
O=C(O)C1CCCCC1c1c2ccc(=O)c(O)c-2oc2c(O)c(O)ccc12 (stereo not given)	0.1 µM
Cc1cc(-c2ccco2)c(C#N)c(SCC(=O)c2ccc(O)c(O)c2)n1	1.8 µM
CN1CC(O)C2=CC(=O)C(=O)C=C21 (stereo not given)	1.6 µM
N#C/C(=C\Nc1ccc(S(=O)(=O)Nc2nccs2)cc1)c1nc(-c2ccc(Cl)cc2)cs1	0.5 µM
O=C1NC(=S)N(c2ccc(Cl)cc2)C(=O)/C1=C/c1ccco1	inactive
O=C1Nc2ccc(I)cc2C1(O)N1CCOCC1 (stereo not given)	0.4 µM
CC(C)OC(=O)c1cc(O)c(O)c(O)c1	> 100 µM (inactive)
Cc1sc(NC(=O)c2ccco2)c(C(N)=O)c1C	inactive
C=Cc1c(C)c2cc3[nH]c(cc4nc(cc5nc(cc1[nH]2)C(C)=C5CCC(=O)O)C(CCC(=O)O)=C4C)c(C)c3C=C	0.2 µM
O=C1NC(=S)N(c2ccccc2F)C(=O)/C1=C/c1ccc(I)o1	3 µM
Ic1ccc2c(c1)N(c1ccccc1)c1cc(N=c3ccc4nc5ccc(I)cc5n(-c5ccccc5)c-4c3)ccc1N2	0.3 µM
COC(=O)c1cc2cc3cc4cc(CC(=O)O)c(C(=O)/C=C(\O)c5ccccc5O)c(OC)c4c(OC)c3c(O)c2c(=O)o1	1.2 µM
CC(C)=CCc1ccc(O)c(=O)cc1C(C)C	inactive
Oc1cc(CN2COc3ccccc32)c(O)cc1CNC1CCCCC1	inactive
Cc1cccc(NCC(=O)N/N=C\c2c(Br)cc(Br)c(O)c2Br)c1	inactive
O=c1[nH]c(=S)n(-c2ccccc2F)c(O)c1C=C1C=CC=N1	0.4 µM

SMILES	IC50
Cc1cc(O)c2c(c1O)C(=O)c1cccc(O)c1C2=O	inactive
Cc1ccc(C2COc3cc(O)c(O)cc3C2)cc1 (stereo not given)	4.8 µM
CN(C)CS/C(N)=N/C(O)C(Cl)(Cl)Cl (stereo not given)	inactive
O=C1C=CC(=O)C(c2cc(Cl)ccc2Cl)=C1	3 µM
O=C1C(Cl)=C/C(=N\S(=O)(=O)c2ccccc2)C(Cl)=C1Cl	4.1 µM
Nc1ccc(S(=O)(=O)O)c2cccc(O)c12	4.5 µM
CCOc1ccc(NC(=O)c2c(NC(=O)c3ccccc3)sc3c2CCCCC3)cc1	1.1 µM
COc1cc(/C=N\c2sc3c(c2C(=O)NCc2ccccc2)CCCC3)cc(Cl)c1O	2 µM
O=C1O/C(=C(/C(=O)O)c2ccc(O)cc2)C(O)=C1c1cc2c3c(c(O)cc(C4=C(O)/C(=C(\C(=O)O)c5ccc(O)cc5)OC4=O)c3c1)OC2=O	0.6 µM
Oc1ccc2ccccc2c1C=NCc1c(O)ccc2ccccc12	8 µM
O=[N+]([O-])c1ccc(S(=O)(=O)Cc2ccccc2)c2nonc12	5 µM
Cc1ccc(NC(=O)c2c(NC(=O)C(F)(F)F)sc(-c3ccccc3)c2C)c(C)c1	7.5 µM
O=S(=O)(Nc1cccc(C(F)(F)F)c1)c1ccc2ccccc2c1	inactive
Cc1cc(O)c2c(c1O)C(=O)C13C(=C2O)C(=O)C2C(O)C1C1C(O)C3C(=O)C3=C(O)c4c(O)cc(C)c(O)c4C(=O)C321 (stereo not given)	4 µM
COc1cccc2cc(C(N)=O)c(=O)oc12	inactive
CCOc1ccc(N2C(=O)/C(=C/c3ccc(Br)o3)C(=O)NC2=S)cc1	0.7 µM
NC(=O)c1c(NC(=O)COc2ccccc2)sc2c1CCCCC2	3.8 µM
C[C@]12CC[C@H]3[C@@H](CCC4=CC(=O)CC[C@@]43C)[C@@H]1CC[C@@H]2C(=O)COS(=O)(=O)c1ccc(Br)cc1	1.1 µM
N#Cc1c(N)nc(SCC(=O)c2ccc(O)c(O)c2)c(C#N)c1-c1ccc(O)cc1	1.3 µM
Oc1cc(O)c2cc(O)c(-c3ccc(O)c(O)c3)[o+]c2c1	0.1 µM
O=C1c2ccccc2C(=O)c2c1cc(O)c(O)c2O	0.6 µM
Cc1ccc(S(=O)(=O)/N=C2\C=C(Sc3ncn[nH]3)C(=O)c3ccccc32)cc1	9.2 µM
Cc1sc(NC(=O)c2ccc(Br)o2)c(C(N)=O)c1C	5 µM
O=C1C(Cl)=CC(=NS(=O)(=O)c2ccccc2)C=C1Cl	4.3 µM
CC1Oc2cc3c(-c4c(O)cc(O)c5c(O)c6c(cc45)OC(C)C(C)C6=O)c(O)cc(O)c3c(O)c2C(=O)C1C (stereo not given)	2.7 µM

SMILES	IC50
O=C(Nc1sc2c(c1C(=O)Nc1cccc3ccccc13)CCCCC2)c1ccccc1F	4.8 µM
C=C(C)[C@@H]1CCc2c(O)c(O)c(=O)cc(C)c2C1	3.8 µM
Cc1ccc(-c2n[nH]c(=S)n2/N=C/c2ccc(O)c(O)c2O)cc1	inactive
O=C1NC(=S)N(c2ccccc2F)C(=O)/C1=C/c1ccc(OCc2cccc(C(=O)O)c2)cc1	9 µM
COc1ccc(N2C(=O)/C(=C\c3cn(CC(=O)Nc4ccccc4)c4ccccc34)C(=O)NC2=S)cc1	0.62 µM
COc1cc(C)cc2c(-c3c(O)cc(O)c4c3C[C@@H](C)N[C@@H]4C)cc(-c3cc(-c4c(O)cc(O)c5c4C[C@@H](C)N[C@@H]5C)c4cc(C)cc(OC)c4c3O)c(O)c12	2 µM
O=C(O)c1c(Br)c(Br)c(Br)c(Br)c1C1c2ccc(O)cc2Oc2cc(O)ccc21	0.9 µM
Cc1onc(-c2ccccc2)c1C(=O)Nc1sc(C)c(C)c1C(N)=O	8 µM
O=c1c(O)c(-c2ccc(O)c(O)c2)oc2cc(O)cc(O)c12	3 µM
O=C(O)/C=C/c1c2ccc(=O)c(O)c-2oc2c(O)c(O)ccc12	0.05 µM
COc1ccc(C2COc3cc(O)c(O)cc3C2)cc1 (stereo not given)	2.8 µM
C=C1C(=O)O[C@@H]2/C=C(\C)CC/C=C(\C(=O)O)CC/C=C(\C)CC[C@H]12	3.1 µM
Cc1cc(I)c2c(c1)C1C=CCC1C(C(=O)O)N2 (stereo not given)	inactive
CCOc1ccc(N2C(=O)/C(=C/c3ccc(I)o3)C(=O)NC2=S)cc1	2 µM
CCCc1cc(=O)oc2c3c(c4c(c12)OC(C)(C)C=C4)O[C@@H](C)[C@H](C)[C@@H]3F	6.8 µM
O=C1NC(=S)N(c2cccc(Cl)c2)C(=O)/C1=C\C=C\c1ccco1	6 µM
Nc1ccc(N=Nc2ccc(-c3ccc(O)cc3)cc2)c2ccc(S(=O)(=O)O)cc12	4.8 µM
O=C1NC(=S)N(c2ccc(Cl)cc2)C(=O)/C1=C/c1ccc(Br)o1	0.6 µM
C=CCN1C(=O)/C(=C\c2ccc([N+](=O)[O-])o2)C(=O)NC1=S	inactive
O=c1[nH]c2[nH]c(=S)[nH]c(=S)c2[nH]1	9 µM
O=C1C(Cl)=C/C(=N\S(=O)(=O)c2ccc(Cl)cc2)C(Cl)=C1Cl	4.6 µM
FC(F)(F)c1nc2ccc(SSc3ccc4nc(C(F)(F)F)[nH]c4c3)cc2[nH]1	1.7 µM
Cc1sc2nc(-c3ccc([N+](=O)[O-])cc3)[nH]c(=O)c2c1C	0.9 µM
Nc1cc(S(N)(=O)=O)ccc1SSc1ccc(S(N)(=O)=O)cc1N	inactive
O=C1NC(=O)/C(=C/c2ccc(-c3ccc(O)c(C(=O)O)c3)o2)S1	0.2 µM
